The text below walks through data of US20080095720A1, “Skin Benefit Compositions with a Vanilloid Receptor Antagonist” (CONOPCO, INC., D/B/A UNILEVER, priority 2006, published 2008).

The assay deals with T1, vanilloid receptor TRP-V1, VR-1 (Homo sapiens, UniProt Q8NER1).
T1 construct: endogenous in cells; host or cells: HaCaT keratinocytes
Briefly: Interleukin-1α production in HaCaT keratinocytes treated with capsaicin with or without capsazepine. The assay is classed as cell-based. The method, then:
Keratinocyte cell lines (HaCaT) were treated with about 1 μM capsaicin (an agonist of vanilloid receptor TRP-V1, VR-1). […] Antagonists of TRP-V1 are thereby expected to be a route to reduce inflammation in the skin when the same is subjected to an irritant.

T1 sequence (Q8NER1 whole entry): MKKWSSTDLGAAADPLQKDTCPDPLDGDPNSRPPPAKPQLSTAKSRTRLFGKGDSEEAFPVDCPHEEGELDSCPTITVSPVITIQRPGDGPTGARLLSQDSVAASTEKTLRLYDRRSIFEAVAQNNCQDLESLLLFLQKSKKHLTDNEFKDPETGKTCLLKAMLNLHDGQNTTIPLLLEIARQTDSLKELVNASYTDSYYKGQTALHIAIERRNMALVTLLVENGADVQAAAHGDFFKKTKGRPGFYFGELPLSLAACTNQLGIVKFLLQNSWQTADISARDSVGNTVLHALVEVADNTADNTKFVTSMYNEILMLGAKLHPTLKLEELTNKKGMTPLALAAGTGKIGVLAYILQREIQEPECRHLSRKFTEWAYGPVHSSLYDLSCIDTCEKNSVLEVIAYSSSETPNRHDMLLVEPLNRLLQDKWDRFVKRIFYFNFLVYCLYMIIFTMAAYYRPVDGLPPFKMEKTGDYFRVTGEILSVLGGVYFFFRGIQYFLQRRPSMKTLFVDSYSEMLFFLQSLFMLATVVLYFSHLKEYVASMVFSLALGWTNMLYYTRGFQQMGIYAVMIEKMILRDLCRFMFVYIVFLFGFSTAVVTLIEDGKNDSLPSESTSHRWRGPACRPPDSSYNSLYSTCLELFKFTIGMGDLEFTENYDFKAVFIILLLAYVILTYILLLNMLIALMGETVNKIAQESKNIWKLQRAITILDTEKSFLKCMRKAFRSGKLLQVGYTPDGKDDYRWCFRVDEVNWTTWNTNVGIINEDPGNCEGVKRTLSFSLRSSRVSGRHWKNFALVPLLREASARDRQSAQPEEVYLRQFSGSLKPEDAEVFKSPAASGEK

In the case of `Oc1cc2c(cc1O)CN(C(=S)NCCc1ccc(Cl)cc1)CCC2` [capsazepine], the “interleukin-1α increase in response to capsaicin” value (HaCaT keratinocytes, capsaicin (1 μM) in the presence of about 3 μM capsazepine) is reported as “blocked the interleukin-1α increase”. For the same compound, for the setting “HaCaT keratinocytes, capsazepine alone”, the interleukin-1α levels result is given as “no effect”.

Regarding `COc1cc(CNC(=O)CCCC/C=C/C(C)C)ccc1O` [capsaicin], the “production of interleukin-1α” value (HaCaT keratinocyte cell lines, about 1 μM capsaicin, p<0.001) was “significant increase”.
